Measured values taken from the NIST ThermoML archive (doi:10.1016/j.jct.2008.02.005).
Numbers after ± are expanded uncertainties.

Assay: xn = mol fraction of the nth substance listed
Conditions: 101 kPa, Liquid; for viscosity: Capillary tube (Ostwald / Ubbelohde) method; for speed of sound: Sing-around technique in a fixed-path interferometer

CCCCCCCCO [octan-1-ol] + CCCCCC
Conditions	mass density, 298.15 K [kg/m3]	mass density, 303.15 K [kg/m3]	mass density, 308.15 K [kg/m3]	speed of sound, 298.15 K [m/s]	speed of sound, 303.15 K [m/s]	speed of sound, 308.15 K [m/s]	viscosity, 298.15 K [mPa·s]
x1 = 0.0651	668.557 ± 0.89	663.926 ± 0.89	659.735 ± 0.9	1090.1 ± 1.1	1068.1 ± 1.1	1046.3 ± 1.1	0.358 ± 0.007
x1 = 0.1109	677.728 ± 0.87	673.192 ± 0.87	668.685 ± 0.88	1100 ± 1.1	1078.1 ± 1.1	1056.6 ± 1.1	0.409 ± 0.007
x1 = 0.1511	685.618 ± 0.85	681.095 ± 0.86	676.641 ± 0.86	1109.9 ± 1.1	1089.3 ± 1.1	1066.9 ± 1.1	0.444 ± 0.007
x1 = 0.2052	695.979 ± 0.83	691.566 ± 0.83	687.129 ± 0.84	1123.8 ± 1.1	1102.7 ± 1.1	1081.6 ± 1.1	0.53 ± 0.007
x1 = 0.2699	708.106 ± 0.8	703.843 ± 0.81	699.426 ± 0.82	1142.3 ± 1.1	1121.4 ± 1.1	1099.9 ± 1	0.654 ± 0.008
x1 = 0.3016	713.929 ± 0.79	709.692 ± 0.8	705.291 ± 0.8	1150.4 ± 1	1129.8 ± 1	1109.3 ± 1	0.725 ± 0.008
x1 = 0.4013	731.693 ± 0.75	727.596 ± 0.76	723.487 ± 0.77	1178.7 ± 1	1158.8 ± 1	1138.9 ± 1	1.023 ± 0.009
x1 = 0.5059	749.508 ± 0.71	745.544 ± 0.72	741.544 ± 0.73	1209.1 ± 1	1189.6 ± 1	1170.3 ± 1	1.477 ± 0.012
x1 = 0.6014	765.032 ± 0.67	761.168 ± 0.68	757.276 ± 0.69	1237 ± 1	1218.1 ± 1	1199.2 ± 0.9	2.057 ± 0.015
x1 = 0.7083	781.504 ± 0.63	777.748 ± 0.64	773.973 ± 0.65	1268.1 ± 0.9	1249.8 ± 0.9	1231.4 ± 0.9	2.954 ± 0.019
x1 = 0.7967	794.381 ± 0.6	790.775 ± 0.61	787.028 ± 0.62	1293.2 ± 0.9	1275.3 ± 0.9	1257.6 ± 0.9	3.977 ± 0.025
x1 = 0.8463	801.415 ± 0.59	797.955 ± 0.59	794.319 ± 0.6	1307.2 ± 0.9	1289.7 ± 0.9	1272.1 ± 0.9	4.666 ± 0.029
x1 = 0.9154	810.757 ± 0.56	807.483 ± 0.57	803.632 ± 0.58	1326.1 ± 0.9	1308.4 ± 0.9	1291.3 ± 0.9	5.802 ± 0.034
x1 = 0.9401	814.039 ± 0.56	810.851 ± 0.56	807.169 ± 0.57	1332.7 ± 0.9	1315.5 ± 0.9	1298.5 ± 0.8	6.264 ± 0.036
x1 = 1	821.813 ± 0.54	818.796 ± 0.54	815.286 ± 0.55	1348 ± 0.8	1330.8 ± 0.8	1314.1 ± 0.8	7.508 ± 0.042

CCCCCCCCO [octan-1-ol] + CCCCCCCC
Conditions	mass density, 298.15 K [kg/m3]	mass density, 303.15 K [kg/m3]	mass density, 308.15 K [kg/m3]	speed of sound, 298.15 K [m/s]	speed of sound, 303.15 K [m/s]	speed of sound, 308.15 K [m/s]	viscosity, 298.15 K [mPa·s]
x1 = 0.0548	705.04 ± 0.76	700.957 ± 0.76	696.852 ± 0.77	1177.6 ± 0.8	1156.9 ± 0.8	1136.7 ± 0.8	0.554 ± 0.007
x1 = 0.1078	711.299 ± 0.74	707.298 ± 0.75	703.23 ± 0.76	1183.3 ± 0.8	1162.8 ± 0.8	1142.7 ± 0.8	0.621 ± 0.007
x1 = 0.1526	716.736 ± 0.73	712.733 ± 0.74	708.68 ± 0.75	1189.2 ± 0.8	1168.9 ± 0.8	1148.9 ± 0.8	0.679 ± 0.007
x1 = 0.2019	722.796 ± 0.72	718.79 ± 0.73	714.754 ± 0.74	1196 ± 0.8	1175.9 ± 0.8	1156.1 ± 0.8	0.762 ± 0.008
x1 = 0.2516	728.888 ± 0.71	724.91 ± 0.72	720.901 ± 0.73	1203.4 ± 0.8	1183.5 ± 0.8	1163.6 ± 0.8	0.839 ± 0.008
x1 = 0.3075	735.75 ± 0.7	731.816 ± 0.71	727.826 ± 0.71	1212.2 ± 0.8	1192.3 ± 0.8	1172.8 ± 0.8	0.965 ± 0.009
x1 = 0.4055	747.852 ± 0.68	743.986 ± 0.69	740.044 ± 0.69	1228 ± 0.8	1208.9 ± 0.8	1189.7 ± 0.8	1.222 ± 0.01
x1 = 0.5031	759.965 ± 0.66	756.131 ± 0.66	752.284 ± 0.67	1245.5 ± 0.8	1226.6 ± 0.8	1207.7 ± 0.8	1.569 ± 0.011
x1 = 0.602	772.269 ± 0.63	768.472 ± 0.64	764.683 ± 0.65	1263.9 ± 0.8	1245.2 ± 0.8	1227 ± 0.8	2.091 ± 0.014
x1 = 0.7158	786.456 ± 0.6	782.773 ± 0.61	779.057 ± 0.62	1286.9 ± 0.8	1268.7 ± 0.8	1250.9 ± 0.8	2.991 ± 0.019
x1 = 0.803	797.369 ± 0.58	793.787 ± 0.59	790.122 ± 0.6	1305.6 ± 0.8	1287.7 ± 0.8	1270.1 ± 0.8	3.986 ± 0.024
x1 = 0.8501	803.36 ± 0.57	799.76 ± 0.58	796.133 ± 0.58	1315.7 ± 0.8	1297.9 ± 0.8	1280.6 ± 0.8	4.652 ± 0.028
x1 = 0.8959	808.907 ± 0.56	805.579 ± 0.57	801.983 ± 0.57	1325.7 ± 0.8	1308.1 ± 0.8	1290.9 ± 0.8	5.399 ± 0.032
x1 = 0.9509	815.733 ± 0.55	812.572 ± 0.55	809.022 ± 0.56	1337.5 ± 0.8	1320.2 ± 0.8	1303.2 ± 0.8	6.441 ± 0.037
x1 = 1	821.813 ± 0.54	818.796 ± 0.54	815.286 ± 0.55	1348 ± 0.8	1330.8 ± 0.8	1314.1 ± 0.8	7.508 ± 0.042

CCCCCCCCO [octan-1-ol] + CCCCCCCCCC
Conditions	mass density, 298.15 K [kg/m3]	mass density, 303.15 K [kg/m3]	mass density, 308.15 K [kg/m3]	speed of sound, 298.15 K [m/s]	speed of sound, 303.15 K [m/s]	speed of sound, 308.15 K [m/s]	viscosity, 298.15 K [mPa·s]
x1 = 0.0507	730.551 ± 1.6	726.796 ± 1.6	722.969 ± 1.6	1236.4 ± 2.9	1216.3 ± 2.9	1196.8 ± 2.9	0.896 ± 0.015
x1 = 0.1199	735.871 ± 1.5	732.137 ± 1.5	728.314 ± 1.5	1240.1 ± 2.8	1220.5 ± 2.8	1201.1 ± 2.8	0.978 ± 0.016
x1 = 0.1532	738.514 ± 1.4	734.755 ± 1.4	730.923 ± 1.4	1242.2 ± 2.7	1222.7 ± 2.7	1203.4 ± 2.7	1.026 ± 0.016
x1 = 0.2085	742.997 ± 1.3	739.255 ± 1.3	735.427 ± 1.3	1246.3 ± 2.6	1226.8 ± 2.6	1207.5 ± 2.6	1.121 ± 0.016
x1 = 0.2654	747.773 ± 1.3	744.007 ± 1.3	740.195 ± 1.3	1250.8 ± 2.4	1231.7 ± 2.4	1212.6 ± 2.4	1.233 ± 0.017
x1 = 0.3097	751.578 ± 1.2	747.791 ± 1.2	743.987 ± 1.2	1254.8 ± 2.3	1235.6 ± 2.3	1216.6 ± 2.3	1.33 ± 0.018
x1 = 0.4009	759.689 ± 1.1	755.863 ± 1.1	752.086 ± 1.1	1263.5 ± 2.1	1244.6 ± 2.1	1225.9 ± 2.1	1.579 ± 0.019
x1 = 0.5041	769.261 ± 0.97	765.532 ± 0.97	761.703 ± 0.97	1274.7 ± 1.9	1256 ± 1.9	1237.4 ± 1.9	1.958 ± 0.021
x1 = 0.6069	779.261 ± 0.85	775.493 ± 0.86	771.782 ± 0.86	1287.2 ± 1.6	1268.7 ± 1.6	1250.5 ± 1.6	2.49 ± 0.023
x1 = 0.7244	791.228 ± 0.74	787.587 ± 0.74	783.929 ± 0.75	1303.1 ± 1.4	1285 ± 1.4	1267.4 ± 1.4	3.381 ± 0.028
x1 = 0.7505	793.993 ± 0.72	790.368 ± 0.72	786.721 ± 0.73	1306.9 ± 1.3	1288.9 ± 1.3	1271.5 ± 1.3	3.642 ± 0.029
x1 = 0.804	799.684 ± 0.67	796.157 ± 0.68	792.558 ± 0.68	1315.2 ± 1.2	1297.5 ± 1.2	1279.9 ± 1.2	4.231 ± 0.031
x1 = 0.8958	809.826 ± 0.6	806.478 ± 0.61	802.907 ± 0.61	1330.1 ± 1	1312.7 ± 1	1295.6 ± 1	5.521 ± 0.036
x1 = 0.9544	816.493 ± 0.56	813.314 ± 0.57	809.765 ± 0.58	1339.9 ± 0.9	1322.9 ± 0.9	1305.9 ± 0.9	6.563 ± 0.039
x1 = 1	821.813 ± 0.54	818.796 ± 0.54	815.286 ± 0.55	1348 ± 0.8	1330.8 ± 0.8	1314.1 ± 0.8	7.508 ± 0.042
